The subject of this test is CEM cells HIV-1 protection, formazan growth assay. Kind of test: NCI AIDS Antiviral Assay. The settings on record: for IC50: measured here: growth of uninfected CEM cells. The essentials:
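Human CEM cells, uninfected and HIV-1-infected, exposed to five drug concentrations; growth measured by soluble formazan assay and scored as percent protection from infection, with protecting compounds retested.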

Activity calls are given as the source filed them.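 How the source made its calls: active means compounds giving half or more protection of infected cells from virus-caused growth loss, again on retest; inactive means the rest.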 Where a SMILES comes first, the peptide text is derived from it. Bridges are numbered along the chain shown (N, C = ends). [ ]: non-standard residue; d: D form. Orn = NCCC[CH](N)C(=O)O

Consider `COP(=O)(OC)c1ccc(NCc2cc(O)ccc2O)cc1`, for which the EC50 is more than 55 µM and the IC50 turned out to be 7.94 µM.

Consider `COC(=O)CC1(C(=O)OC)C2CCCN2C2(C#N)c3ccccc3CCC12Br` (stereo not given), for which the EC50 is more than 41.7 µM and the IC50 is more than 41.7 µM.

As for `CCOC(=O)c1ccc(N2N=NC3C4CC(C5CCCC54)C32)cc1` (stereo not given), the EC50 was more than 200 µM and the half-inhibitory concentration (IC50) was more than 200 µM.

Regarding `CCN1CN(c2ccccc2)C2(CCN(CC3COc4ccccc4O3)CC2)C1=O` (stereo not given), the EC50 is more than 200 µM and the IC50 was determined as 115 µM. Taken in the same sequence, the figures for `O=C1CC(=O)NC(=NN2C(=O)/C(=C/c3ccc(Cl)c(Cl)c3)N=C2c2ccccc2)N1` were more than 200 µM and 21.9 µM. Turning to `CC(=O)Oc1cccc2c1C(=O)C(Br)(Br)CCC2`, the outcome was inactive. Regarding `CCOC(=O)c1c(C)c(N=O)c2ccccn12`, the EC50 was more than 200 µM and the IC50 stood at 5.62 µM. Taken in the same sequence, the figures for `Cc1ccccc1NS(=O)(=O)c1c(N)ncn1C` were more than 832 µM and more than 832 µM. For `c1ccc2cc3c(NC4=NCCO4)cccc3cc2c1`, the EC50 was more than 200 µM and the IC50 is 64.6 µM. With `OC(c1nc2ccccc2s1)(C(F)(F)F)C(F)(F)F`, the outcome was inactive. With `COc1cc2c(o1)C(=O)N1CCc3c([nH]c4ccccc34)C21` (stereo not given), the EC50 was more than 115 µM and the IC50 was determined as 64.6 µM. Turning to `O=C(COc1ccc(Cl)cc1)c1ccccc1`, the EC50 is more than 1000 µM and the IC50 was more than 1000 µM. For the compound `C[n+]1c2ccccc2n2c3ccccc3c(NCCCN3CCOCC3)c(C#N)c21`, the EC50 is more than 20 µM and the IC50 stood at 0.676 µM.

As for `O=C(O)c1nc(-c2ccccc2)ncc1-c1nnnn1-c1ccccc1`, the EC50 is more than 200 µM and the IC50 was more than 200 µM. `Cc1c(C(=O)CC(=O)C(=O)Nc2cc(Cl)ccc2Cl)[n+](=O)c2ccccc2n1[O-]`: the EC50 is more than 8.71 µM and the IC50 is more than 8.71 µM. Consider `COC(C/C(=C/CO[Si](C(C)C)(C(C)C)C(C)C)C(=O)Nc1ccccc1I)OC`, for which the EC50 was more than 200 µM and the IC50 worked out at 40.7 µM. In the case of `CN(C)C(=O)C(CC[N+]1(C)CCCC12CCCCC2)(c1ccccc1)c1ccccc1` (stereo not given), the EC50 is more than 200 µM and the IC50 worked out at 74.1 µM. In the case of `O=c1[nH]cnc2c(NC3OC(CO)C(O)C3O)cccc12` (stereo not given), the result was inactive.

On to `CCCC/C=C(/CCCBr)[Si](C)(C)C`, for which the EC50 was more than 339 µM and the IC50 was more than 339 µM. For the compound `CCC(C)C(CC)(C(=O)O)C(=O)O` (stereo not given), the EC50 is more than 1320 µM and the IC50 is 380 µM. Taken in the same sequence, the figures for `CC(C)(C)OC(=O)N1CCCC1=O` were more than 200 µM and more than 200 µM. As to `COc1cc(C2C3=C(COC3=O)Oc3cc4c(cc32)OCO4)cc(OC)c1O` (stereo not given), the EC50 is more than 2 µM and the IC50 was determined as 0.0562 µM. For the compound `[N-]=N[N+]#I1OC(C(F)(F)F)(C(F)(F)F)c2ccccc21`, the result was inactive.

As for `Cc1ccc(S(=O)(=O)N[C@H](C(=O)O)c2ccccc2)cc1`, the outcome was inactive. On to `O=C1SS(=O)c2ccccc21` (stereo not given), for which the EC50 is more than 200 µM and the IC50 was determined as 95.5 µM. Taken in the same sequence, the figures for `O=C1Nc2cc(Cl)ccc2N=CC1NC(=O)C(c1ccccc1)c1ccccc1Cl` (stereo not given) were more than 295 µM and 219 µM.

In the case of `CCC1CN2CCc3cc(OC)c(OC)cc3C2CC1CC1c2cc(OC)c(OC)cc2CCN1C(=O)C1CCCN1` (stereo not given), the result was inactive. Turning to `Cc1cn(C2CC(C/C=[N+](\[O-])CC3OC(n4cc(C)c(=O)[nH]c4=O)CC3O[Si](C)(C)C(C)(C)C)C(CO[Si](C)(C)C(C)(C)C)O2)c(=O)[nH]c1=O` (stereo not given), the EC50 was more than 200 µM and the IC50 came out at 36.3 µM. For `COc1cc(/C=C2\CC/C(=C\c3ccc(O)c(OC)c3)C2=O)ccc1O`, in that order: more than 200 µM and 1.48 µM. Taken in the same sequence, the figures for `C(#C[PH+](c1ccccc1)c1ccccc1)c1ccccc1.C(#C[PH+](c1ccccc1)c1ccccc1)c1ccccc1.C(#C[PH+](c1ccccc1)c1ccccc1)c1ccccc1.[C-]#[O+].[C-]#[O+].[C-]#[O+].[Cr]` were more than 0.55 µM and more than 0.55 µM. Take `COC(=O)C(=O)C1CCCCC(C2=NC3NN=C(N)N3C2=O)C1=O` (stereo not given): the EC50 was more than 21.4 µM and the IC50 is more than 21.4 µM. Consider `CCOC(=O)C(CO)c1nc2c([nH]c1=O)c(=O)n(C)c(=O)n2C` (stereo not given), for which the EC50 was more than 200 µM and the IC50 is more than 200 µM. As for `OC1OC(c2ccc[nH]2)C(F)(F)C(F)(F)C1(F)F` (stereo not given), the EC50 is more than 200 µM and the IC50 came out at 67.6 µM. Turning to `COc1c(OC(C)=O)cc2c(OC(C)=O)c1CC(C)CC(OC)C(O)C(C)/C=C(\C)C(OC(N)=O)C(OC)/C=C\C=C(/C)C(=O)N2` (stereo not given), the EC50 is more than 195 µM and the IC50 worked out at 3.02 µM.

Regarding `C=CCOc1cc2c(cc1C(C)c1ccc(OC)cc1)OCO2` (stereo not given), the EC50 was more than 32.4 µM and the IC50 came out at 0.708 µM. Taken in the same sequence, the figures for `CN1C(=O)/C(=C2\SC(=O)N(CN3CCCCC3)C2=O)c2ccccc21` were more than 200 µM and 27.5 µM.

Regarding `CC/C=C/c1cc2c(c3[nH]ccc13)[C@@H](C)CC2C` (stereo not given in full) (tested in a mixture with another compound), the outcome was inactive. With `COc1cccc(NC(=O)C(=O)C2C=CCS2(=O)=O)c1` (stereo not given), the EC50 is more than 63.1 µM and the IC50 is more than 63.1 µM. As to `NC(=O)C1CCCNC(=O)CC(NC(=O)C(N)Cc2ccc(O)cc2)C(=O)NC(Cc2ccccc2)C(=O)N1` (stereo not given) (H-YDF[Orn]-NH2; lactam 2-4; configuration not given here), the EC50 is more than 100 µM and the IC50 was more than 100 µM. For `CC(C)(C)c1ccc(-n2c3nc(=O)n(-c4ccccc4CO)c(=O)c-3cc3ccccc32)cc1`, the EC50 was more than 200 µM and the IC50 was 23.4 µM. For the compound `COc1cc2c(c3oc(C)c(C)c(=O)c13)C=CC(C)(C)O2`, the EC50 was more than 200 µM and the IC50 stood at 66.1 µM. Turning to `COC(=O)NC1(NC(=O)OC)NC(=O)c2ccccc2N1`, the EC50 was more than 200 µM and the IC50 was more than 200 µM.

Take `N#Cc1cccc(N2C(=O)c3ccc(C(=O)c4ccc5c(c4)C(=O)N(c4cccc(C#N)c4)C5=O)cc3C2=O)c1`: the EC50 is more than 7.24 µM and the 50% inhibitory concentration (IC50) was more than 7.24 µM. For the compound `CC(=O)Nc1ccc(CNc2cc(=O)[nH]c(=O)[nH]2)cc1`, the EC50 is more than 200 µM and the IC50 is more than 200 µM. For the compound `COc1c2c(c3c(c1C1OC(C)[C@@H](C)O1)CC(C)(C)O3)C(=O)c1ccccc1C2=O` (stereo not given in full), the EC50 was more than 63.1 µM and the IC50 was more than 63.1 µM. Regarding `CC(=NCCN(CCN=C(C)c1c(O)cc(C)oc1=O)CCN=C(C)c1c(O)cc(C)oc1=O)c1c(O)cc(C)oc1=O`, the EC50 was more than 200 µM and the IC50 is more than 200 µM. Take `O=C1NC(N2CCOCC2)=N/C1=C\c1ccc(Cl)cc1`: the EC50 is more than 200 µM and the IC50 was more than 200 µM. Take `Cn1c(SCc2ccc([N+](=O)[O-])cc2)nnc1C12CC3CC(CC(C3)C1)C2`: the EC50 was more than 200 µM and the IC50 was found to be 110 µM.

In the case of `CC1(C)CNC[C@]2(C)OCCCO[C@@]3(C)CNCC(C)(C)NC(=O)[C@](C)(CNCC(C)(C)NC3=O)OCCCO[C@](C)(CNCC(C)(C)NC2=O)C(=O)N1`, the EC50 is more than 200 µM and the IC50 was more than 200 µM. Turning to `c1ccc2nc([Se][Se]c3ccc4ccccc4n3)ccc2c1`, the EC50 was more than 9.12 µM and the IC50 turned out to be 4.17 µM. Consider `CN(O)C(=O)/C=C/c1ccc(OCc2cccc(Cl)c2)cc1`, for which the EC50 was more than 200 µM and the IC50 worked out at 46.8 µM. Taken in the same sequence, the figures for `COc1ccc(C(=O)CC2=Nc3nnc(CCCCCCCc4nnc5n4C(=O)C(CC(=O)c4ccc(OC)cc4)=N5)n3C2=O)cc1` were more than 4.27 µM and more than 4.27 µM. Consider `COc1ccccc1N1C(=O)/C(=C/c2ccc(N(CCC#N)CCC#N)cc2C)N=C1c1cc([N+](=O)[O-])ccc1Cl`, for which the result was inactive. For `O=C(O)c1ccccc1NC(=O)C1CCCCC1`, the result was inactive.

Take `Cc1nc(N)nn1C1OCC(O)C(O)C1O` (stereo not given): the outcome was inactive.

Consider `C=C(C)OCOCCOC`, for which the EC50 is more than 200 µM and the IC50 is more than 200 µM. As for `CCOC(=O)CC1C(O)C(=O)N(C)C1c1ccccc1` (stereo not given), the result was inactive. Take `CN1C(CCl)Nc2cc(Cl)c(S(N)(=O)=O)cc2S1(=O)=O` (stereo not given): the EC50 is more than 363 µM and the IC50 is 64.6 µM.

Consider `CCCc1c(C(=O)OCC)[nH]c(-c2ccc(-c3[nH]c(C(=O)OCC)c(CCC)c3C(=O)OCC)s2)c1C(=O)OCC`, for which the EC50 was more than 4.68 µM and the IC50 is more than 4.68 µM.

Turning to `O=C1C2C(C(=O)N1c1ccccc1)C1c3ccccc3C2C2C(=O)N(c3ccccc3)C(=O)C21` (stereo not given), the result was inactive.

Turning to `O=C(CCCN1CCC2(CC1)C(=O)NCN2c1ccccc1)c1ccc(F)cc1`, the EC50 was more than 200 µM and the IC50 came to 13.5 µM. For `C/C(CC(=O)Nc1ccc(C)cc1C)=N/N=C(N)N`, in that order: more than 191 µM and more than 191 µM. Taken in the same sequence, the figures for `c1ccc2c(c1)nnn1c3ncccc3nc21` were more than 58.9 µM and 23.4 µM. Take `O=[N+]([O-])c1cccc2c(N3CC3)cnnc12`: the result was inactive.

With `O=C(CCl)Nc1ccccc1-c1ccccc1NC(=O)CCl`, the outcome was inactive. Same read-out and setting: next, `CCOc1ccc(NC(=O)/C(=C\c2ccc(C)cc2)C(C)=O)cc1`: “inactive”. As for `CCCCN1C(=O)c2cc(=O)[nH]c(O)c2C1C` (stereo not given), the EC50 is more than 1050 µM and the IC50 worked out at 676 µM. Regarding `N#CCCN(CCCN(C(=O)Nc1ccccc1)c1ccccc1)C(=O)Nc1ccccc1`, the EC50 was more than 200 µM and the IC50 was 95.5 µM. For `CC(=O)OC(C)C(=O)C1c2cccc(O)c2C(=O)c2c(O)cc(C)cc21` (stereo not given), in that order: more than 191 µM and 3.24 µM. In the case of `CCC[CH2][Sn]([CH2]CCC)([S]C1=NCCS1)[S]C1=NCCS1`, the EC50 was more than 39.8 µM and the IC50 worked out at 0.759 µM.

The values are drawn from PubChem BioAssay AID179 (DTP/NCI, 2004).
